Source: ChEMBL document CHEMBL6071211, “Invention of VH-937, a Potent HIV-1 Maturation Inhibitor with the Potential for Infrequent Oral Dosing in Humans” (ACS Med Chem Lett, 2024)

What was measured:
[1] = system: Human immunodeficiency virus 1; test: In vitro antiviral activity against fully replicating pseudotype HIV1 harboring Gag V370A mutant by single cycle assay; format: functional, organism-based
[2] = system: Human immunodeficiency virus 1; test: In vitro antiviral activity against HIV1 subtype D clinical isolate UG270; format: functional, organism-based; details: Human immunodeficiency virus 1, UG270
[3] = Volume of distribution at steady state in rat at 1 mg/kg, iv; format: ADME, organism-based; details: in vivo, read-out: Vdss
[4] = system: Human immunodeficiency virus 1; test: In vitro antiviral activity against HIV1 subtype F clinical isolate BZ126; format: functional, organism-based; details: Human immunodeficiency virus 1, BZ126
[5] = AUC (infinity) in rat at 1 mg/kg, iv; format: ADME, organism-based; details: in vivo
[6] = system: Human immunodeficiency virus 1; test: In vitro antiviral activity against fully replicating pseudotype HIV1 harboring Gag V3621/V370A mutant assessed as maximum percent inhibition by single cycle assay relative to control; format: functional
[7] = system: Human immunodeficiency virus 1; test: In vitro antiviral activity against fully replicating HIV1 NL4-3 harboring Gag T332S/V362I/prR41G mutant; format: functional, organism-based; details: Human immunodeficiency virus 1, NL4-3
[8] = system: Human immunodeficiency virus 1; test: Ratio of EC50 for antiviral activity against fully replicating pseudotype HIV1 harboring Gag V3621/V370A mutant by single cycle assay to EC50 for antiviral activity against fully replicating wild type pseudotype HIV1 NLRepRluc-P373S by single cycle assay; format: functional
[9] = system: Human immunodeficiency virus 1; test: In vitro antiviral activity against fully replicating wild type HIV1 NL4-3 in presence of human serum; format: functional, organism-based; details: Human immunodeficiency virus 1, NL4-3
[10] = Elimination half life in rat at 1 mg/kg, iv; format: ADME, organism-based; details: in vivo, read-out: beta t1/2 (converted)
[11] = Half life in normal healthy human volunteers plasma at 10 mg for 15 days and followed by 30 mg; format: ADME, cell-free; details: time 15 day
Cytochrome P450 2B6 = biological target: T1, Cytochrome P450 2B6 (Homo sapiens, UniProt P20813); test: Inhibition of CYP2B6 (unknown origin); format: ADME
T1 sequence (P20813 whole entry): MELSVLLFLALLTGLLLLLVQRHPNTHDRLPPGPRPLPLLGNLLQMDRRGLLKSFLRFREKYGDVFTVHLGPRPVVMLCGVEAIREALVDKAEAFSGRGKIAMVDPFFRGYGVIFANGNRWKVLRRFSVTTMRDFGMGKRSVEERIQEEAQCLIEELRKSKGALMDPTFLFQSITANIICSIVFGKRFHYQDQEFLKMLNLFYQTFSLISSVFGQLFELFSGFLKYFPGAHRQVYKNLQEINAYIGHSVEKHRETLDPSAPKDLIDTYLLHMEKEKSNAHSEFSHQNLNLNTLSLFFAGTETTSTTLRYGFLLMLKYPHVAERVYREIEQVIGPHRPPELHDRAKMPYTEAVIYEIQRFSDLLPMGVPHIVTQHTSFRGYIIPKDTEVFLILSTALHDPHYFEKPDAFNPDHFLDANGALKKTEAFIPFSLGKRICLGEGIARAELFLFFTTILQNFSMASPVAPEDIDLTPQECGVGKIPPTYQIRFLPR

[12] = system: Human immunodeficiency virus 1; test: In vitro antiviral activity against fully replicating HIV1 harboring Gag deltaV370 mutant by multicycle assay; format: functional, organism-based

Which EC50 [1] does the source give for `C=C(C)[C@@H]1CC[C@]2(NCCN3CCS(=O)(=O)CC3)CC[C@]3(C)[C@H](CC[C@@H]4[C@@]5(C)CC=C(C6=CC[C@](COc7ncccc7C#N)(C(=O)O)CC6)C(C)(C)[C@@H]5CC[C@]43C)[C@@H]12` here?
Its EC50 is 6 nM.

What about the EC50 [2] of the same compound?
Its EC50 is 2 nM.

What about the Vd [3] of the same compound?
Its Vd is 0.87 L/kg.

What about the EC50 [4] of the same compound?
The EC50 was 2 nM.

And the AUC(0-inf) [5]?
Its AUC(0-inf) is 16.1 µM·h.

And the Imax [6]?
Its Imax is 98%.

What about the EC50 [7] of the same compound?
The EC50 was 8 nM.

And the “Ratio EC50” value [8]?
The value was 2.3.

And the EC50 [9]?
Its EC50 is 26 nM.

And the half-life [10]?
The half-life was 8.6 h.

And the half-life [11]?
The half-life was 67 h.

What about the IC50 (Cytochrome P450 2B6) of the same compound?
Its IC50 is greater than 4400 nM.

And the EC50 [12]?
Its EC50 is 4 nM.
